Values after ≈ are worked out from the molar mass of the structure shown.
Legend:
Hep G2 = test: MTT solid tumor cell proliferation inhibition, Hep G2; format: cell-based; conditions: Homo sapiens, HepG2
Experimental: (§1) Human solid tumor cell lines: Hep-2 (laryngeal carcinoma), A549 (human lung cancer), CaES-17 (esophageal cancer cell), PC-3 (prostate cancer), CNE (nasopharyngeal carcinoma cell), and SK-OV-3 (ovarian cancer cell), all of which are purchased from China Center For Type Culture Collection; RKO (human colon adenocarcinoma cell), MGC 803 (human gastric cancer cell), MG63 (osteosarcoma) and U87 MG (malignant glioma cell), all of which are purchased from Fuxiang Bio-tech Co. Ltd., Shanghai, China; PANC-1 (pancreatic cancer), Hep G2 (human liver cancer cell), Becap37 (human breast cancer cell), and Hela (human cervical cancer cell), all of which are donated by Cancer Research Institute of Zhejiang University, China.
(§2) Obtaining 4000 well-growing human solid tumor cells and inoculating them into wells of a 96-well cell culture plate. The culture medium is DMEM High Glucose cell culture medium containing 10% fetal bovine serum. The plate is placed in a carbon dioxide cell incubator (5% CO2) at 37° C. for 24 hours for incubation. After being added with the amidated oleanolic acid derivatives of different concentrations and mixed uniformly, the plate is placed in a carbon dioxide cell incubator (5% CO2) at 37° C. for 72 hours for incubation. Then the relative number of the living cells is determined by the MTT method. In this experiment, the cell proliferation inhibition rate in control group (not treated with any compound) is set as 0%.

H9 = test: MTT leukemia cell proliferation inhibition, H9; format: cell-based, human
Source text: (§3) Leukemia cell lines: leukemia cell lines: K562/adr (drug-resistant, chronic myeloid leukemia, CML), NB4 (acute promyelocytic leukemia, AML), Kasumi-1 (acute myeloid leukemia M2 type, AML-M2), Jurkat (acute lymphoblastic leukemia, ALL), all of which are donated by Cancer Research Institute of Zhejiang University, China; and H9 (acute lymphoblastic leukemia, ALL), which is purchased from China Center for Type Culture Collection (CCTCC).
(§4) Reagents: The standard sample of oleanolic acid (OA) is purchased from Hua Kang Pharmaceutical Raw Material Factory, Shifang City, Sichuan, China; and the amidated oleanolic acid derivatives are prepared according to the present invention.
(§5) Obtaining 6000 well-growing leukemia cells and inoculating them into wells of a 96-well cell culture plate. The culture medium is the 1640 cell culture medium containing 10% fetal bovine serum. After adding the amidated oleanolic acid derivatives of different concentrations and mixing uniformly, placing the plate in a carbon dioxide cell incubator (5% CO2) at 37° C. and incubated for 72 hours. Then the relative number of viable cells is determined by the MTT method. In this experiment, the cell proliferation inhibition rate in control group (not treated with any compound) is set as 0%.

U87 MG = test: MTT solid tumor cell proliferation inhibition, U87 MG; format: cell-based, human; conditions: Homo sapiens, U-87 MG, U87 MG, 72 h
Experimental: as §1, §2

SK-OV-3 = test: MTT solid tumor cell proliferation inhibition, SK-OV-3; format: cell-based, human
Experimental: as §1, §2

PC-3 = test: MTT solid tumor cell proliferation inhibition, PC-3; format: cell-based, human; conditions: Homo sapiens
Experimental: as §1, §2

Becap37 = test: MTT solid tumor cell proliferation inhibition, Becap37; format: cell-based; conditions: Homo sapiens
Experimental: as §1, §2

Kasumi-1 = test: MTT leukemia cell proliferation inhibition, Kasumi-1; format: cell-based; conditions: Homo sapiens
Source text: as §3, §4, §5

Jurkat = test: MTT leukemia cell proliferation inhibition, Jurkat; format: cell-based; conditions: Homo sapiens, 72 h
Source text: as §3, §4, §5

RPMI8226 = test: MTT multiple myeloma cell proliferation inhibition, RPMI8226; format: cell-based; conditions: Homo sapiens, RPMI-8226
Experimental: Multiple myeloma cell lines: RPMI8226 (multiple myeloma), purchased from Fuxiang Bio-tech Co. Ltd., Shanghai, China.
as §5

CaES-17 = test: MTT solid tumor cell proliferation inhibition, CaES-17; format: cell-based, human; conditions: Homo sapiens, CaEs17
Experimental: as §1, §2

PANC-1 = test: MTT solid tumor cell proliferation inhibition, PANC-1; format: cell-based, human
Experimental: as §1, §2

Hep-2 = test: MTT solid tumor cell proliferation inhibition, Hep-2; format: cell-based, human; conditions: Homo sapiens
Experimental: as §1, §2

NB4 = test: MTT leukemia cell proliferation inhibition, NB4; format: cell-based; conditions: Homo sapiens, NB-4
Source text: as §3, §4, §5

MGC803 = test: MTT solid tumor cell proliferation inhibition, MGC803; format: cell-based, human
Experimental: as §1, §2

RKO = test: MTT solid tumor cell proliferation inhibition, RKO; format: cell-based; conditions: Homo sapiens, 72 h
Experimental: as §1, §2

A549 = test: MTT solid tumor cell proliferation inhibition, A549; format: cell-based, human; conditions: Homo sapiens
Experimental: as §1, §2

CNE = test: MTT solid tumor cell proliferation inhibition, CNE; format: cell-based, human
Experimental: as §1, §2

Hela = test: MTT solid tumor cell proliferation inhibition, Hela; format: cell-based, human
Experimental: as §1, §2

K562/adr = test: MTT leukemia cell proliferation inhibition, K562/adr; format: cell-based; conditions: Homo sapiens, 72 h
Source text: as §3, §4, §5

MG 63 = test: MTT solid tumor cell proliferation inhibition, MG 63; format: cell-based, human
Experimental: as §1, §2

[1] = 16 μg/mL compound, read-out: IR (inhibition rate)

With `CC1(C)CC[C@]2(NC(=O)c3cccnc3Cl)CC[C@]3(C)C(=CC[C@@H]4[C@@]5(C)CC[C@H](O)C(C)(C)[C@@H]5CC[C@]43C)[C@@H]2C1` [BS-OA-096] the inhibition at 16 µg/mL (Hep G2; Hep G2, 16 μg/mL compound, 72 h, read-out: IR (inhibition rate)) was 40.1%, the IC50 (Hep G2; Hep G2, 72 h, MTT) was 18.5 µg/mL (≈ 32.6 µM) and the “improvement of cell inhibition rate as compared with oleanolic acid” value (H9; H9 cells) was ~4 fold. It also gave an inhibition at 16 µg/mL (H9; Homo sapiens, H9, 16 μg/mL compound, 72 h, read-out: IR (inhibition rate)) of 84%, an IC50 (H9; Homo sapiens, H9, 72 h, MTT) of 10.7 µg/mL (≈ 18.9 µM) and an inhibition at 16 µg/mL (U87 MG; [1]) of 38.5%. For the same molecule, the IC50 (U87 MG; MTT) was > 16 µg/mL, the inhibition at 16 µg/mL (SK-OV-3; Homo sapiens, SK-OV-3, 16 μg/mL compound, 72 h, read-out: IR (inhibition rate)) was 97% and the IC50 (SK-OV-3; Homo sapiens, SK-OV-3, 72 h, MTT) was 10.1 µg/mL (≈ 17.8 µM). For the same molecule, the “improvement of cell inhibition rate as compared with oleanolic acid” value (SK-OV-3; SKOV-3 cells) was > 12 fold, the inhibition at 16 µg/mL (PC-3; PC-3, 16 μg/mL compound, 72 h, read-out: IR (inhibition rate)) was 48.1% and the IC50 (PC-3; PC-3, 72 h, MTT) was 18.3 µg/mL (≈ 32.2 µM). The inhibition at 16 µg/mL (Becap37; Becap37, 16 μg/mL compound, 72 h, read-out: IR (inhibition rate)) was 39.3%, the IC50 (Becap37; Becap37, 72 h, MTT) was > 16 µg/mL and the inhibition at 16 µg/mL (Kasumi-1; Kasumi-1, 16 μg/mL compound, 72 h, read-out: IR (inhibition rate)) was 33.6%. For the same molecule, the IC50 (Kasumi-1; Kasumi-1, 72 h, MTT) was > 16 µg/mL, the inhibition at 16 µg/mL (Jurkat; [1]) was 55.3% and the IC50 (Jurkat; MTT) was 15.3 µg/mL (≈ 27 µM). The inhibition at 16 µg/mL (RPMI8226; RPMI8226, 16 μg/mL compound, 72 h, read-out: IR (inhibition rate)) was 96.9%, the IC50 (RPMI8226; RPMI8226, 72 h, MTT) was 9.2 µg/mL (≈ 16.2 µM) and the inhibition at 16 µg/mL (CaES-17; CaES-17, 16 μg/mL compound, 72 h, read-out: IR (inhibition rate)) was 39.8%. For the same molecule, the IC50 (CaES-17; CaES-17, 72 h, MTT) was > 16 µg/mL, the inhibition at 16 µg/mL (PANC-1; Homo sapiens, PANC-1, 16 μg/mL compound, 72 h, read-out: IR (inhibition rate)) was 59.1% and the IC50 (PANC-1; Homo sapiens, PANC-1, 72 h, MTT) was 14.7 µg/mL (≈ 25.9 µM). For the same molecule, the “improvement of inhibition rate as compared with oleanolic acid” value (PANC-1; PANC-1 cells) was ~7 fold, the inhibition at 16 µg/mL (Hep-2; Hep-2, 16 μg/mL compound, 72 h, read-out: IR (inhibition rate)) was 20.6% and the IC50 (Hep-2; Hep-2, 72 h, MTT) was > 16 µg/mL. For the same molecule, the inhibition at 16 µg/mL (NB4; NB4, 16 μg/mL compound, 72 h, read-out: IR (inhibition rate)) was 100%, the IC50 (NB4; NB4, 72 h, MTT) was 11.2 µg/mL (≈ 19.7 µM) and the inhibition at 16 µg/mL (MGC803; Homo sapiens, MGC-803, MGC803, 16 μg/mL compound, 72 h, read-out: IR (inhibition rate)) was 70%. For the same molecule, the IC50 (MGC803; Homo sapiens, MGC-803, MGC803, 72 h, MTT) was 13.6 µg/mL (≈ 23.9 µM), the “improvement of inhibition rate as compared with oleanolic acid” value (MGC803; MGC803 cells) was ~3 fold and the inhibition at 16 µg/mL (RKO; [1]) was 59.4%. For the same molecule, the IC50 (RKO; MTT) was 14.7 µg/mL (≈ 26 µM), the inhibition at 16 µg/mL (A549; A549, 16 μg/mL compound, 72 h, read-out: IR (inhibition rate)) was 18.7% and the IC50 (A549; A549, 72 h, MTT) was > 16 µg/mL. For the same molecule, the “improvement of inhibition rate as compared with oleanolic acid” value (CNE; CNE cells) was ~2 fold, the inhibition at 16 µg/mL (CNE; Homo sapiens, CNE, 16 μg/mL compound, 72 h, read-out: IR (inhibition rate)) was 63.9% and the IC50 (CNE; Homo sapiens, CNE, 72 h, MTT) was 14 µg/mL (≈ 24.7 µM). The “improvement of inhibition rate as compared with oleanolic acid” value (Hela; Hela cells) was ~4 fold, the inhibition at 16 µg/mL (Hela; Homo sapiens, Hela, 16 μg/mL compound, 72 h, read-out: IR (inhibition rate)) was 88.9% and the IC50 (Hela; Homo sapiens, Hela, 72 h, MTT) was 9.43 µg/mL (≈ 16.6 µM). The inhibition at 16 µg/mL (K562/adr; [1]) was 81.9%, the IC50 (K562/adr; MTT) was 8.53 µg/mL (≈ 15 µM) and the IC50 (MG 63; Homo sapiens, MG 63, 72 h, MTT) was 13.8 µg/mL (≈ 24.3 µM). The “IR (inhibition rate)” value (MG 63; MG 63, 16 μg/mL compound, 72 h) was 78.1%.
